Data on 26 compounds can be found in PubChem BioAssay (NCI).

Holding throughout (assay): NCI tumour cell line growth inhibition, 48 h
The test system of assay [1] is DLD-1 colon.
The test system of assay [2] is KM20L2 colon.
Assay [3] concerns DMS 273 small cell lung.
Assay [4] has as its system SNB-78 CNS.
The subject of assay [5] is HOP-18 NSCLC.
Assay [6] has as its system LXFL 529 NSCLC.
Assay [7] concerns MDA-N.
Assay [8] has as its system RXF-631 renal.
Assay [9] has as its system DMS 114 small cell lung.

The structures appear in SMILES notation.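 Five compound concentrations were applied to cells in 96-well plates for 48 hours; endpoints were derived by simple linear interpolation of the resulting dose-response curve. TGI: total growth inhibition.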 Some results are limits rather than exact numbers.

For the compound `CC(C)OC(=O)Nc1c([N+](=O)[O-])cc(C(F)(F)F)cc1[N+](=O)[O-]`, the TGI in assay [1], in assay [2], in [3], in assay [4], in assay [5] and in assay [6] was above 100 µM throughout. For the same compound, the TGI in [7] is above 100 µM.
As for `O=C(Nc1ccc(Nc2ccc3c(c2)C(=O)c2ccccc2C3=O)c2c1C(=O)c1ccccc1C2=O)c1ccccc1`, the TGI in [7] was above 100 µM.
As to `Cc1cccc(-c2nc(=S)[nH][nH]2)c1`, the TGI in assay [1], in [2], in [3], in assay [4], in assay [5] and in [8] was above 100 µM in each case. In [6], this compound registered a TGI above 100 µM.
Regarding `CC(C)CC(NC(=O)C(O)C(N)Cc1ccccc1)C(=O)O` (stereo not drawn), in assay [7], the TGI is above 100 µM.
For `O=C(c1ccccc1)[C@H]1Nc2ccc(Cl)cc2[C@H]2c3ccccc3O[C@H]21`, the TGI in assay [1] was 30 µM; in assay [9] it was 40.1 µM; in [2], 28.3 µM; in assay [3], 38.7 µM; in assay [4], 32.3 µM; in assay [5], 24 µM. For the same compound, the TGI in assay [6] worked out at 28.5 µM.
Consider `O=[N+]([O-])c1ccc(Cl)c(C2CC(c3cccc4ccccc34)=Nc3ccccc3S2=O)c1` (stereo not drawn), for which the TGI in assay [1] is 26.1 µM; in assay [9], 41.1 µM; in assay [2], above 63.6 µM; in [3], above 100 µM; in assay [4], 38.9 µM; in assay [5], above 100 µM. Also, the TGI in assay [8] is above 100 µM; in assay [6], 52.8 µM.
In the case of `O=NN(CC1(O)OCC(O)C(O)C1O)C(Cc1c[nH]c2ccccc12)C(=O)O` (stereo not drawn), the TGI in [1], in assay [9], in [2], in [3], in assay [4] and in assay [8] was above 100 µM in each case.
Regarding `COc1cccc(C2CC(C)(O)Oc3cc4c(cc32)OCO4)c1` (stereo not drawn), in assay [7], the TGI was determined as 7.84 µM.
As to `Cc1cc(C)c2c(c1)CSCc1cc(C)cc(C)c1-2`, the TGI in assay [1] was above 100 µM; in [9], 69.9 µM; in assay [2], above 100 µM; in assay [3] it was above 100 µM; in [4], 62 µM; in assay [5] it was above 100 µM. The TGI in assay [6] is above 100 µM.
Turning to `COc1cc(OC)c(OC)cc1/C=C/c1ccccn1`, the TGI in assay [7] was above 10 µM.
Same read-out and setting: in the case of `O=C(O)C1CCCN1` (stereo not drawn) it was above 100 µM.
With `COC(=O)C1=C(C(=O)OC)C23CC4CCC2(C(=O)C1O3)C4(C)C` (stereo not drawn), the TGI in assay [1], in assay [2], in assay [5] and in [6] was above 100 µM each time.
`C=C1C(=O)O[C@@H]2C[C@@]3(C)CCC[C@H](C)C3=C[C@H]12` (tested in a mixture with another compound) gave a TGI in assay [7] of 7.08 µM.
Same read-out and setting: in the case of `O=C(O)c1c2c(c(O)c3c1CN(C1CCCCC1)CO3)OCN(C1CCCCC1)C2` it was above 100 µM.
Regarding `O=C1CN=C(c2ccccc2)c2ccncc2N1`, the TGI in assay [1], in assay [9], in assay [2], in assay [3], in assay [4] and in assay [5] was above 100 µM in each case. Besides, the TGI in assay [8] and in assay [6] was above 100 µM each time.
In the case of `CCOc1ccc2c(c1)[n+]([O-])c(C(N)=O)c(N)[n+]2[O-]`, the TGI in assay [1], in assay [9], in assay [2], in [3], in [4] and in assay [5] was above 100 µM in each case. In assay [6], this compound returned a TGI above 100 µM.
Consider `CC(C)(C)CNCCO`, for which, in assay [7], the TGI was above 100 µM.
As for `OC(c1ccccc1)c1c(-c2ccccc2)[nH]c(-c2ccccc2)c1C(O)c1ccccc1` (stereo not drawn), the TGI in [7] turned out to be 7.2 µM.
In the case of `CN(N=O)C(=O)NC(CCCCNC(=O)OCc1ccccc1)C(=O)OCc1ccccc1` (stereo not drawn), the TGI in [1] is above 100 µM; in assay [9], 72.6 µM; in assay [2] it was above 100 µM; in assay [3] it was above 100 µM; in assay [4] it was 60.4 µM; in assay [8], 44.8 µM. Besides, the TGI in assay [6] worked out at 94 µM.
Regarding `Cc1cnoc1/N=C1\C=C(Nc2oncc2C)C(=O)c2ccccc21`, the TGI in assay [1], in assay [9], in assay [2], in [3], in [4] and in assay [5] was above 100 µM throughout. The TGI in assay [8] and in [6] was above 100 µM throughout.
As for `C[C@]12CC[C@H]3[C@@H](CCC4=CC(=O)CC[C@@]43C)[C@]1(O)CC[C@]2(O)C(=O)CO`, the TGI in assay [7] is above 100 µM.
With `CCOP(=O)(OCC)C(C(=O)OC)C(=O)C(=O)Nc1cccc([N+](=O)[O-])c1` (stereo not drawn), the TGI in [1], in assay [9], in assay [2], in [3], in [4] and in assay [5] was above 100 µM in each case. Further, the TGI in [8] and in [6] was above 100 µM throughout.
In turn, `O=c1oc2ccccc2cc1P(=O)(O)O` came in with a TGI in [7] above 100 µM.
Turning to `CC1=NC2(C(=O)O)C3(C(=O)O)N=C(C)OC3(C(F)(F)F)C2(C(F)(F)F)O1` (stereo not drawn), the TGI in assay [1], in [9], in assay [2], in assay [3], in [4] and in assay [5] was above 100 µM throughout.
On to `NCCNCCNCc1c2ccccc2c(CNCCNCCN)c2ccccc12`, for which the TGI in assay [1], in [9], in [2], in assay [4], in [5] and in assay [6] was above 100 µM each time.
For the compound `CS(=O)(=O)N(CCC#N)c1ccc(/C=C2\N=C(c3ccccc3Cl)OC2=O)cc1`, the TGI in [1], in assay [9], in assay [2], in assay [3], in [4] and in assay [6] was above 100 µM in each case.
